In US9358244B2, “Solid dosage forms of oleyl phosphocholine” (Oblita Therapeutics BVBA, priority 2010, dated 2016):
Converted amounts (≈) assume the structure as drawn.

How the values were obtained:
[1] = tested on: Leishmania infantum (MHOM/MA (BE)/67) amastigotes; assay: Curative efficacy against Leishmania infantum in the hamster model, oral 5 days; assay type: in vivo; settings: for Bone marrow % red / Liver % red / Spleen % red: reduction vs VIC; for Bone marrow Mean ± SE of amastigotes per nucleus / Liver Mean ± SE of LDU / Spleen Mean ± SE of LDU: 10 days after last treatment
Method: Golden hamsters (female, 75 g) were allocated randomly to 7 groups with 8 animals per group. • G1: vehicle infected control (VIC): 200 μl blank vehicle orally 5 days • G2: MIL-PBS: 5×40 mg/kg (=98.1 μmol/kg) orally for 5 days • G3: MIL-PBS: 5×20 mg/kg (=49.1 μmol/kg) orally for 5 days • G4: OlPC-PBS: 5×42.5 mg/kg (=98.1 μmol/kg) orally for 5 days • G5: OlPC-PBS: 5×21.2 mg/kg (=49.1 μmol/kg) orally for 5 days • G6: OlPC-liposomes: 5×2.4 ml/kg (=98.1 μmol/kg) orally for 5 days • G7: OlPC-liposomes: 5×1.2 ml/kg (=49.1 μmol/kg) orally for 5 days Drinking water and food were available ad libitum throughout the experiment. […] Artificial Infection
Leishmania infantum (MHOM/MA (BE)/67) amastigotes were obtained from the spleen of heavily infected donor hamsters. The total parasite burden was determined on Giemsa-stained smears. Amastigotes in the spleen homogenate were concentrated using two centrifugation steps (low speed (300 rpm) with collection of the supernatant−high speed (4200 rpm) with collection of the pellet). The parasite burdens in the spleen were estimated using the Stauber technique and the amastigote suspension was diluted to prepare the infection inocula for intracardial infection containing 2×10^7 amastigotes/100 μl. At 21 days post infection (=start of treatment), the levels infection were checked in 4 randomly chosen animals by making a smear from a liver biopsy for determination of the parasite burden (cfr. infra).
• Miltefosine was formulated at 20 mg/ml and 10 mg/ml in PBS and stored at room temperature in the dark. A clear transparent solution was obtained. • OlPC-PBS was formulated at 21.25 mg/ml and 10.63 mg/ml in PBS and stored at room temperature in the dark. A clear transparent solution was obtained. • OlPC-liposome formulation was prepared at 18 mg/ml (dosed at 2.4 ml/kg=120 μl/50 gram). The formulation was diluted 2 times in PBS to obtain a OlPC-formulation of 9 mg/ml (dosed at 1.2 ml/kg=[…])) Treatment
Oral treatment started 21 days after infection (dpi) and was continued for 5 consecutive days. Dosing volume was 100 μl per 50 gram BW (bodyweight).
Parasite Burden: amastigote burdens in the different target organs (liver, spleen, bone-marrow) were determined 10 days after the last treatment (i.e. day 35 of the experiment). The organs of individual animals were weighed (except bone-marrow); impression smears were fixed in methanol and stained with Giemsa for microscopic evaluation of the number of amastigotes per cell by counting a minimum of 500 nuclei1. The results are expressed as Leishman Donovan Units (LDU)=mean number of amastigotes per nucleus×mg organ weight. Percentage reduction as compared to vehicle-treated infected control animals (VIC) is used as a measure for drug activity. Particularly for spleen and bone-marrow, the viability of possible residual burdens was assessed using the promastigote transformation assay.

[2] = tested on: Leishmania infantum (MHOM/MA (BE)/67) amastigotes; assay: Follow up experiment: single versus multiple oral administrations in L. infantum infected hamsters; assay type: in vivo; settings: hamster, total doses 25, 50 and 100 mg/kg oral, liver, spleen, bone marrow
Method: (§1) In a follow up experiment, the same experimental protocol was used to compare the efficacy of oral oleyl phosphocholine (OlPC) at total doses of 25, 50 and 100 mg/kg when given as single or multiple oral administrations (5×5, 10 and 20 mg/kg, respectively).
(§2) Female hamsters (n=60) were intracardially infected with 2×10^7 Leishmania infantum (MHOM/MA (BE)/67) amastigotes on day 0. Treatment started at day+21 post infection for 5 consecutive days once daily with a total dose of […] given as single or multiple oral administrations. Amastigote burdens in the different target organs (liver, spleen, bone-marrow) were determined 10 days after the last treatment (day+35). The organs of individual animals were weighed (except bone-marrow); impression smears were fixed in methanol and stained with Giemsa for microscopic evaluation of the number of amastigotes per cell by counting a minimum of 500 nuclei. The results (FIG. 4) are expressed as Leishman Donovan Units (LDU)=mean number of amastigotes per nucleus×mg organ weight.

[3] = Water solubility of OlPC; assay type: physicochemical
Method: The wet granulation process for OlPC solid dosage formulation requires that OlPC is solubilised in water. OlPC as a water solubility of 0.2 g/ml, which implies that for each tablet with 50 mg of OlPC at least 250 μl of water per tablet has to be incorporated in the dry powder mixture.

[4] = tested on: L. infantum; assay: Treatment of dogs naturally infected with L. infantum, clinical score; assay type: in vivo; settings: 4 mg/kg/day orally 14 days
Method: (§3) The dose of 4 mg/kg/day oleylphosphocholine was used to treat orally during 14 days a cohort of 6 dogs from a shelter naturally infected with L. infantum and classified as clinically sick. The dogs were assessed at the clinical (physical examination and clinic-pathological abnormalities) and parasitological levels at the beginning of the treatment (day 0) and on day 15, 30 and 90.

[5] = Tolerability in hamsters, follow up experiment; assay type: in vivo; settings: hamster, oral, single administrations as high as 100 mg/kg
Method: as §1, §2

[6] = Dynamic vapor sorption, OlPC hygroscopicity; assay type: physicochemical; settings: 25° C.
Method: Active pharmaceutical ingredients (API) frequently show a propensity to interact with water molecules, leading to absorption of moisture in their bulk structure or adsorption on their surfaces. Such behaviour can critically affect many pharmaceutical properties such as purity, solubility and chemical stability, density, surface area, powder flow, compact ability and crystal form. […] Dynamic vapor sorption (DVS) analyzes determine hygroscopicity profiles using a very small sample (≈15 mg), and provide both qualitative and quantitative information on water uptake.
Water sorption/desorption isotherm of OlPC was determined gravimetrically at 25° C. (SD, 0.1° C.) using a DVS Advantage 1 with a Cahn D200 microbalance (Surface Measurement Systems, London, UK). Between 10 and 20 mg was weighed in the sample cup of the instrument, subjected to a drying step in order to bring the sample to a constant weight and subsequently exposed to increasing relative humidity (RH) (using 10% increments up to 90%). Following the sorption phase, the sample was exposed to a decreasing RH (in steps of 10% until 0% RH). Each step continued until equilibrium was reached (i.e. when the change in mass smaller than 0.002% per minute during at least 10 min) or until 6 h had passed. The mass change was recorded every minute with a resolution of ±0.1 μg.

[7] = Tolerance in treated naturally infected dogs; assay type: in vivo; settings: 6 dogs, 4 mg/kg/day orally 14 days
Method: as §3

[8] = Thermogravimetric analysis (TGA) of OlPC; assay type: physicochemical; settings: with 1% of mass loss, heating rate 10° C./min
Method: Thermogravimetric Analysis (TGA) measures weight changes in a material as a function of temperature (or time) under a controlled atmosphere. Its principal use includes measurement of a material's thermal stability and composition. The TGA analysis was performed using a HR TGA 2950 (TA Instruments, Leatherhead, UK). Samples (±15 mg) were equilibrated at 50° C. and then heated to 500° C. at a heating rate of 10° C./min and the percentage of weight loss was recorded. The OlPC compound show thermal degradation at 159.27° C. with 1% of mass loss.

[9] = Compatibility of OlPC with binder in solution; assay type: physicochemical
Description: The tablets produced presented high levels of friability and high disintegration time. It was observed that the presence of polyvynilpyrrolidone in solution with OlPC induces the formation of an unknown precipitated which indicates the presence of an incompatibility between the two compounds.
Hydroxypropylmethylcellulose was then selected to replace polyvynilpyrrolidone as a binder in the subsequent formulation assays.

[10] = 49.1 μmol/kg (20 mg/kg) orally for 5 days
[11] = 98.1 μmol/kg (40 mg/kg) orally for 5 days

With CCCCCCCCCCCCCCCCOP(=O)([O-])OCC[N+](C)(C)C [Miltefosine] the “Bone marrow % red” value [1, 10] was 39%, the Liver % red [1, 10] was 0% and the Spleen % red [1, 10] was 61%. For the same compound, the Liver % red ([1]; 49.1 μmol/kg (20 mg/kg) orally for 5 days, listed as MIL) was “no reduction”, the “Bone marrow Mean ± SE of amastigotes per nucleus” value ([1]; 49.1 μmol/kg orally for 5 days) was 1.0 ± 0.34 amastigotes per nucleus and the “Liver Mean ± SE of LDU” value ([1]; 49.1 μmol/kg orally for 5 days) was 9017 ± 1489 LDU. The “Spleen Mean ± SE of LDU” value ([1]; 49.1 μmol/kg orally for 5 days) was 188 ± 44 LDU, the “Bone marrow % red” value [1, 11] was 95% and the Liver % red [1, 11] was 65%. For the same compound, the Spleen % red [1, 11] was 99.2%, the Spleen % red ([1]; 98.1 μmol/kg (40 mg/kg) orally for 5 days, listed as MIL) was 99% and the “Bone marrow Mean ± SE of amastigotes per nucleus” value ([1]; 98.1 μmol/kg orally for 5 days) was 0.1 ± 0.014 amastigotes per nucleus. For the same compound, the “Liver Mean ± SE of LDU” value ([1]; 98.1 μmol/kg orally for 5 days) was 2764 ± 847 LDU and the “Spleen Mean ± SE of LDU” value ([1]; 98.1 μmol/kg orally for 5 days) was 3.7 ± 1.67 LDU.

For CCCCCCCC/C=C\CCCCCCCCOP(=O)([O-])OCC[N+](C)(C)C [OlPC, oleyl phosphocholine], the “overall parasite suppression levels, single versus multiple administrations” value [2] was “similar”, the water solubility [3] was 0.2 g/mL (≈ 461 mM) and the “average clinical score (CS)” value ([4]; day 15 (day 0: 19, range 14-31)) was 12 (range 7-16). For the same compound, the “average clinical score (CS)” value ([4]; day 30 (day 0: 19, range 14-31)) was 5 (range 1-10), the “average clinical score (CS)” value ([4]; day 90 (range 0-5; day 0: 19)) was 2 and the “tolerability / signs of toxicity” value [5] was “well tolerated”. For the same compound, the water absorbed ([6]; exposed to 90% RH) was 41.67%, the hygroscopicity ([6]; water sorption and desorption profiles) was “very hygroscopic” and the “tolerance, side effects” value [7] was “two of the six dogs treated experienced diarrhea during the first week post-treatment, and a third one had diarrhea and 1 episode of vomiting”. The thermal degradation temperature [8] was 159.27 °C, the compatibility with hydroxypropylmethylcellulose [9] was “no such incompatibility was observed” and the “compatibility with polyvinylpyrrolidone in solution” value ([9]; unknown precipitate formed) was “incompatibility”.
